Measurements as given in the OligoGym collection.
HELM strings list units from the 5' end as sugar, base in round brackets, then linkage (d deoxyribose, r ribose, m 2'-O-methyl, p phosphodiester). Strings are as the collection lists them; they lack the last nucleoside at the 3' end of the tested compound. [moe] = 2'-O-(2-methoxyethyl) (MOE); [sp] = phosphorothioate linkage; [m5C] = 5-methylcytosine

Target: UBE3A-ATS
Assay: mouse, dose not given
Conditions: ASO

Substance | 3 h FOB score [score 0-7]
RNA1{[moe](A)[sp].[moe](T)p.[moe](A)p.[moe](G)p.[moe]([m5C])p.d([m5C])[sp].d([m5C])[sp].d(T)[sp].d(T)[sp].d(T)[sp].d([m5C])[sp].d(A)[sp].d(G)[sp].d([m5C])[sp].d(A)[sp].[moe]([m5C])p.[moe](A)p.[moe]([m5C])[sp].[moe](T)}$$$$ (last 3' nucleoside missing) | 3.5
RNA1{[moe](T)[sp].[moe](T)p.[moe](A)p.[moe](G)p.[moe](G)p.d(T)[sp].d(T)[sp].d(A)[sp].d(G)[sp].d(T)[sp].d(G)[sp].d([m5C])[sp].d(A)[sp].d([m5C])[sp].d(A)[sp].[moe](G)p.[moe](A)p.[moe](T)[sp].[moe](A)}$$$$ (last 3' nucleoside missing) | 6
RNA1{[moe](T)[sp].[moe](G)p.[moe](G)p.[moe](T)p.[moe]([m5C])[sp].d(A)[sp].d(T)[sp].d([m5C])[sp].d(T)[sp].d([m5C])[sp].d(G)[sp].d(G)[sp].d(G)[sp].[moe](T)p.[moe](A)p.[moe](T)[sp].[moe](A)}$$$$ (last 3' nucleoside missing) | 6.3
RNA1{[moe](T)[sp].[moe]([m5C])p.[moe](G)p.[moe](G)p.[moe](A)p.d(T)[sp].d(A)[sp].d(T)[sp].d(A)[sp].d(G)[sp].d([m5C])[sp].d(T)[sp].d(T)[sp].d(T)[sp].d(T)[sp].[moe](A)p.[moe]([m5C])p.[moe](A)[sp].[moe](T)}$$$$ (last 3' nucleoside missing) | 1
RNA1{[moe](T)[sp].[moe](T)p.[moe](T)p.[moe](G)p.[moe]([m5C])p.d(T)[sp].d(T)[sp].d(T)[sp].d(T)[sp].d([m5C])[sp].d(A)[sp].d(G)[sp].d(T)[sp].d([m5C])[sp].d(A)[sp].[moe](G)p.[moe](G)p.[moe](T)[sp].[moe](A)}$$$$ (last 3' nucleoside missing) | 1
RNA1{[moe](T)[sp].[moe]([m5C])p.[moe](A)p.[moe](G)p.[moe](T)[sp].d(T)[sp].d(A)[sp].d(G)[sp].d(G)[sp].d(T)[sp].d(T)[sp].d(A)[sp].d(G)[sp].[moe](T)p.[moe](G)p.[moe]([m5C])[sp].[moe](A)}$$$$ (last 3' nucleoside missing) | 4.3
RNA1{[moe](A)[sp].[moe](T)p.[moe](G)p.[moe](T)p.[moe](G)p.d(G)[sp].d(G)[sp].d([m5C])[sp].d([m5C])[sp].d(T)[sp].d([m5C])[sp].d(T)[sp].d(A)[sp].d(T)[sp].d(T)[sp].[moe](A)p.[moe](A)p.[moe](G)[sp].[moe](A)}$$$$ (last 3' nucleoside missing) | 0.7
RNA1{[moe](A)[sp].[moe](A)p.[moe]([m5C])p.[moe](G)p.[moe]([m5C])p.d(A)[sp].d(A)[sp].d(T)[sp].d(G)[sp].d(T)[sp].d(A)[sp].d(T)[sp].d([m5C])[sp].d(A)[sp].d(G)[sp].[moe](G)p.[moe]([m5C])p.[moe](A)[sp].[moe](A)}$$$$ (last 3' nucleoside missing) | 1
RNA1{[moe](T)[sp].[moe](T)p.[moe](G)p.[moe]([m5C])p.d(T)[sp].d(G)[sp].d(A)[sp].d(T)[sp].d([m5C])[sp].d(A)[sp].d([m5C])[sp].d(A)[sp].d(T)[sp].d(T)[sp].[moe](A)p.[moe]([m5C])p.[moe]([m5C])p.[moe]([m5C])[sp].[moe](A)}$$$$ (last 3' nucleoside missing) | 0
RNA1{[moe](G)[sp].[moe]([m5C])p.[moe](T)p.[moe](T)p.[moe]([m5C])p.[moe](A)p.d([m5C])[sp].d([m5C])[sp].d(A)[sp].d(T)[sp].d(T)[sp].d(T)[sp].d(T)[sp].d(G)[sp].d(A)[sp].d([m5C])[sp].[moe]([m5C])p.[moe](T)[sp].[moe](T)}$$$$ (last 3' nucleoside missing) | 1
RNA1{[moe](G)[sp].[moe](T)p.[moe](G)p.[moe](T)p.d(T)[sp].d(T)[sp].d(T)[sp].d(T)[sp].d([m5C])[sp].d([m5C])[sp].d(A)[sp].d(T)[sp].d(T)[sp].d(T)[sp].[moe](T)p.[moe](T)p.[moe]([m5C])p.[moe](T)[sp].[moe]([m5C])}$$$$ (last 3' nucleoside missing) | 0
RNA1{[moe]([m5C])[sp].[moe](T)p.[moe](G)p.[moe](A)p.[moe](G)p.d(T)[sp].d([m5C])[sp].d(A)[sp].d(G)[sp].d(T)[sp].d([m5C])[sp].d([m5C])[sp].d(A)[sp].d(A)[sp].d(A)[sp].[moe](T)p.[moe](G)p.[moe](A)[sp].[moe](A)}$$$$ (last 3' nucleoside missing) | 0.5
RNA1{[moe](G)[sp].[moe](G)p.[moe](T)p.[moe](T)p.[moe](A)p.d(A)[sp].d(G)[sp].d(T)[sp].d([m5C])[sp].d(T)[sp].d(G)[sp].d([m5C])[sp].d(T)[sp].d([m5C])[sp].d(T)[sp].[moe](T)p.[moe](T)p.[moe]([m5C])[sp].[moe](A)}$$$$ (last 3' nucleoside missing) | 4
RNA1{[moe](G)[sp].[moe](A)p.[moe](T)p.[moe]([m5C])p.[moe](A)p.d([m5C])[sp].d(A)[sp].d(T)[sp].d(T)[sp].d(A)[sp].d([m5C])[sp].d([m5C])[sp].d([m5C])[sp].d(A)[sp].d(T)[sp].[moe]([m5C])p.[moe]([m5C])p.[moe](G)[sp].[moe](T)}$$$$ (last 3' nucleoside missing) | 0
RNA1{[moe](T)[sp].[moe](G)p.[moe](A)p.[moe](T)p.[moe]([m5C])p.[moe](A)p.d([m5C])[sp].d(A)[sp].d(T)[sp].d(T)[sp].d(A)[sp].d([m5C])[sp].d([m5C])[sp].d([m5C])[sp].d(A)[sp].d(T)[sp].[moe]([m5C])p.[moe]([m5C])[sp].[moe](G)}$$$$ (last 3' nucleoside missing) | 0
RNA1{[moe](T)[sp].[moe](G)p.[moe](T)p.[moe](G)p.[moe](T)p.[moe](G)p.d(T)[sp].d(T)[sp].d(T)[sp].d(T)[sp].d(T)[sp].d([m5C])[sp].d([m5C])[sp].d(A)[sp].d(T)[sp].d(T)[sp].[moe](T)p.[moe](T)[sp].[moe](T)}$$$$ (last 3' nucleoside missing) | 0
RNA1{[moe](A)[sp].[moe](A)p.[moe](A)p.[moe]([m5C])p.[moe](G)p.[moe]([m5C])p.d(A)[sp].d(A)[sp].d(T)[sp].d(G)[sp].d(T)[sp].d(A)[sp].d(T)[sp].d([m5C])[sp].d(A)[sp].d(G)[sp].[moe](G)p.[moe]([m5C])[sp].[moe](A)}$$$$ (last 3' nucleoside missing) | 3
RNA1{[moe]([m5C])[sp].[moe](A)p.[moe](T)p.[moe](T)p.[moe](A)p.d(T)[sp].d(T)[sp].d([m5C])[sp].d(T)[sp].d([m5C])[sp].d(T)[sp].d(A)[sp].d(G)[sp].d(T)[sp].d(G)[sp].[moe]([m5C])p.[moe]([m5C])p.[moe](T)[sp].[moe](A)}$$$$ (last 3' nucleoside missing) | 4
RNA1{[moe](A)[sp].[moe](G)p.[moe](G)p.[moe](T)p.[moe](G)p.d(T)[sp].d([m5C])[sp].d(T)[sp].d(T)[sp].d(A)[sp].d(T)[sp].d(A)[sp].d(T)[sp].d([m5C])[sp].d(T)[sp].[moe](A)p.[moe](T)p.[moe](G)[sp].[moe](A)}$$$$ (last 3' nucleoside missing) | 0
